Assay results as given in the NIST ThermoML archive (doi:10.1021/je050200w).

Experiment: xn = mol fraction of the nth substance listed
Conditions: 101 kPa, Liquid

CCCCCCCCCO [nonan-1-ol] + CCCCCCCCCCO
Conditions | mass density [kg/m3] | viscosity [mPa·s]
283.15 K, x1 = 0.1009 | 836.5 | 21.5
283.15 K, x1 = 0.2 | 836.4 | 21.12
283.15 K, x1 = 0.3 | 836.2 | 20.65
283.15 K, x1 = 0.4002 | 836 | 20.15
283.15 K, x1 = 0.5001 | 835.9 | 19.71
283.15 K, x1 = 0.6003 | 835.7 | 19.17
283.15 K, x1 = 0.6996 | 835.6 | 18.59
283.15 K, x1 = 0.7999 | 835.4 | 18.14
283.15 K, x1 = 0.9047 | 835.2 | 17.78
283.15 K, x1 = 1 | 835 | 17.44
288.15 K, x1 = 0.1009 | 833.2 | 17.44
288.15 K, x1 = 0.2 | 833 | 17.06
288.15 K, x1 = 0.3 | 832.8 | 16.69
288.15 K, x1 = 0.3999 | 832.7 | 16.2
288.15 K, x1 = 0.5001 | 832.5 | 15.82
288.15 K, x1 = 0.6003 | 832.3 | 15.44
288.15 K, x1 = 0.6996 | 832.2 | 15.2
288.15 K, x1 = 0.7999 | 832 | 14.85
288.15 K, x1 = 0.9047 | 831.8 | 14.48
288.15 K, x1 = 1 | 831.5 | 14.27
293.15 K, x1 = 0.1009 | 829.8 | 14.1
293.15 K, x1 = 0.2 | 829.6 | 13.73
293.15 K, x1 = 0.3 | 829.5 | 13.5
293.15 K, x1 = 0.3999 | 829.3 | 13.22
293.15 K, x1 = 0.5 | 829.1 | 13
293.15 K, x1 = 0.6003 | 829 | 12.48
293.15 K, x1 = 0.6996 | 828.8 | 12.36
293.15 K, x1 = 0.7999 | 828.6 | 12.09
293.15 K, x1 = 0.9047 | 828.4 | 11.83
293.15 K, x1 = 1 | 828.1 | 11.63
298.15 K, x1 = 0.1009 | 826.4 | 11.52
298.15 K, x1 = 0.2 | 826.2 | 11.36
298.15 K, x1 = 0.3 | 826.1 | 11.13
298.15 K, x1 = 0.4002 | 825.9 | 10.87
298.15 K, x1 = 0.5 | 825.7 | 10.62
298.15 K, x1 = 0.6003 | 825.5 | 10.38
298.15 K, x1 = 0.6996 | 825.4 | 10.17
298.15 K, x1 = 0.7999 | 825.1 | 9.933
298.15 K, x1 = 0.9047 | 824.9 | 9.725
298.15 K, x1 = 1 | 824.7 | 9.519
303.15 K, x1 = 0.1009 | 822.9 | 9.398
303.15 K, x1 = 0.2 | 822.8 | 9.242
303.15 K, x1 = 0.3 | 822.6 | 9.083
303.15 K, x1 = 0.4002 | 822.4 | 8.886
303.15 K, x1 = 0.5001 | 822.2 | 8.703
303.15 K, x1 = 0.6003 | 822 | 8.504
303.15 K, x1 = 0.6996 | 821.9 | 8.332
303.15 K, x1 = 0.7999 | 821.7 | 8.16
303.15 K, x1 = 0.9047 | 821.5 | 7.929
303.15 K, x1 = 1 | 821.3 | 7.806
308.15 K, x1 = 0.1009 | 819.5 | 7.867
308.15 K, x1 = 0.2 | 819.4 | 7.739
308.15 K, x1 = 0.3 | 819.1 | 7.613
308.15 K, x1 = 0.4002 | 819 | 7.453
308.15 K, x1 = 0.5 | 818.8 | 7.307
308.15 K, x1 = 0.6003 | 818.6 | 7.151
308.15 K, x1 = 0.6996 | 818.5 | 7.014
308.15 K, x1 = 0.7999 | 818.3 | 6.857
308.15 K, x1 = 0.9047 | 818 | 6.693
308.15 K, x1 = 1 | 817.8 | 6.604
313.15 K, x1 = 0.1009 | 816.1 | 6.704
313.15 K, x1 = 0.2 | 815.9 | 6.629
313.15 K, x1 = 0.3 | 815.7 | 6.517
313.15 K, x1 = 0.4002 | 815.6 | 6.4
313.15 K, x1 = 0.5001 | 815.3 | 6.234
313.15 K, x1 = 0.6003 | 815.2 | 6.15
313.15 K, x1 = 0.6996 | 815 | 6.026
313.15 K, x1 = 0.7999 | 814.8 | 5.87
313.15 K, x1 = 0.9047 | 814.5 | 5.779
313.15 K, x1 = 1 | 814.3 | 5.668

CCCCCCCCCO [nonan-1-ol] + CCCCCCCCO
Conditions | mass density [kg/m3] | viscosity [mPa·s]
283.15 K, x2 = 0 | 835 | 17.44
283.15 K, x2 = 0.1001 | 834.6 | 16.99
283.15 K, x2 = 0.1998 | 834.4 | 16.57
283.15 K, x2 = 0.2999 | 834.1 | 16.21
283.15 K, x2 = 0.4003 | 833.8 | 15.79
283.15 K, x2 = 0.5001 | 833.5 | 15.41
283.15 K, x2 = 0.6001 | 833.2 | 15.01
283.15 K, x2 = 0.7 | 832.9 | 14.55
283.15 K, x2 = 0.8001 | 832.7 | 14.21
283.15 K, x2 = 0.9001 | 832.3 | 13.9
288.15 K, x2 = 0 | 831.5 | 14.27
288.15 K, x2 = 0.1001 | 831.3 | 13.92
288.15 K, x2 = 0.1998 | 831 | 13.61
288.15 K, x2 = 0.2999 | 830.7 | 13.2
288.15 K, x2 = 0.4003 | 830.4 | 12.83
288.15 K, x2 = 0.5001 | 830.1 | 12.5
288.15 K, x2 = 0.6001 | 829.8 | 12.26
288.15 K, x2 = 0.7 | 829.5 | 11.97
288.15 K, x2 = 0.8001 | 829.3 | 11.59
288.15 K, x2 = 0.9001 | 828.9 | 11.33
293.15 K, x2 = 0 | 828.1 | 11.63
293.15 K, x2 = 0.1001 | 827.8 | 11.38
293.15 K, x2 = 0.1998 | 827.6 | 11.12
293.15 K, x2 = 0.2999 | 827.3 | 10.79
293.15 K, x2 = 0.4003 | 827 | 10.55
293.15 K, x2 = 0.5001 | 826.7 | 10.26
293.15 K, x2 = 0.6001 | 826.4 | 10.04
293.15 K, x2 = 0.7 | 826.1 | 9.838
293.15 K, x2 = 0.8001 | 825.8 | 9.525
293.15 K, x2 = 0.9001 | 825.5 | 9.303
298.15 K, x2 = 0 | 824.7 | 9.519
298.15 K, x2 = 0.1001 | 824.4 | 9.353
298.15 K, x2 = 0.1998 | 824.1 | 9.135
298.15 K, x2 = 0.2997 | 823.8 | 8.957
298.15 K, x2 = 0.4003 | 823.5 | 8.749
298.15 K, x2 = 0.4996 | 823.2 | 8.582
298.15 K, x2 = 0.6001 | 822.9 | 8.43
298.15 K, x2 = 0.7 | 822.6 | 8.238
298.15 K, x2 = 0.8001 | 822.4 | 7.976
298.15 K, x2 = 0.9001 | 822 | 7.786
303.15 K, x2 = 0 | 821.3 | 7.806
303.15 K, x2 = 0.1001 | 821 | 7.679
303.15 K, x2 = 0.1998 | 820.7 | 7.537
303.15 K, x2 = 0.2997 | 820.4 | 7.35
303.15 K, x2 = 0.4003 | 820.1 | 7.171
303.15 K, x2 = 0.5001 | 819.8 | 7.057
303.15 K, x2 = 0.6001 | 819.5 | 6.936
303.15 K, x2 = 0.7 | 819.2 | 6.779
303.15 K, x2 = 0.8001 | 818.9 | 6.634
303.15 K, x2 = 0.9001 | 818.6 | 6.494
308.15 K, x2 = 0 | 817.8 | 6.604
308.15 K, x2 = 0.1001 | 817.5 | 6.479
308.15 K, x2 = 0.1998 | 817.2 | 6.356
308.15 K, x2 = 0.2999 | 816.9 | 6.212
308.15 K, x2 = 0.4003 | 816.6 | 6.055
308.15 K, x2 = 0.5001 | 816.3 | 5.963
308.15 K, x2 = 0.6001 | 816 | 5.862
308.15 K, x2 = 0.7 | 815.7 | 5.743
308.15 K, x2 = 0.8001 | 815.4 | 5.625
308.15 K, x2 = 0.9001 | 815 | 5.51
313.15 K, x2 = 0 | 814.3 | 5.668
313.15 K, x2 = 0.1001 | 814 | 5.579
313.15 K, x2 = 0.1998 | 813.7 | 5.458
313.15 K, x2 = 0.2999 | 813.4 | 5.377
313.15 K, x2 = 0.4003 | 813.1 | 5.258
313.15 K, x2 = 0.5001 | 812.8 | 5.181
313.15 K, x2 = 0.6001 | 812.5 | 5.068
313.15 K, x2 = 0.7 | 812.2 | 4.957
313.15 K, x2 = 0.8001 | 812 | 4.872
313.15 K, x2 = 0.9001 | 811.6 | 4.773
